# Assay results: patent US10752626B2, “Iso-citrate dehydrogenase (IDH) inhibitor” (SHANGHAI METON PHARMACEUTICAL CO., LTD, priority 2016, dated 2020)
# Legend:
# [1] = molecular target: T1, IDH1 R132C (Homo sapiens (Human), UniProt O75874, R132C); test: Improved cell-based assay: D-2-HG in HT1080 cells over-expressing D-2-HG dehydrogenase; conditions: 12 h
# Description: The present disclosure also provides a cell based method for assaying IDH inhibition and selectivity of the compounds in human fibrosacoma cell line HT1080 and cholangiocarcinoma cell line HCCC 9810, which harbor endogenous heterozygous IDH1 R132C and R132H mutation respectively and accumulate D-2-HG Tumor derived IDH mutant lost its normal activity of producing α-KG and gained a new activity of producing D-2-HG D-2-HG is a metabolite specifically elevated in IDH mutated tumor samples.
# By treating HT1080 and HCCC 9810 cells with an effective IDH inhibitor, the synthesis of D-2-HG is blocked, and D-2-HG concentration is decreased by the oxidation reaction catalyzed by D-2-HG dehydrogenase.
# To perform a cell based IDH inhibitor assay, HT1080 and HCCC 9810 cells (or other cell lines harboring different IDH mutations) are cultured in DMEM supplemented with 10% FBS. The cells are treated with compounds of present disclosure at various different concentration. At various time points (between 4-24 hours) after the treatment, cell culture supernatants were removed and cells were washed with PBS for one or two times. Cell metabolites are extracted by adding 80% methanol (pre-chilled under −80° C.) in the cells, extract at 4° C. temperature for 60 min, centrifuged to remove any insoluble component. Metabolites (clear supernatant from the previous step) are lyophilized and reconstituted in pyridine containing 20 mg/ml O-methoxyamineHCl and are incubated at 70° C. for 40 minutes. After cooling down to room temperature, MTBSTFA (N-tert-Butyldimethylsilyl-N-methyltrifluoroacetamide, Sigma Aldrich) is added at a volume ratio of 4:7 (e.g., 20 μL MTBSTFA to 35 μL 20 mg/ml O-methoxyamineHCl solution) and derivation is performed at 70° C. for 30 minutes. The derived metabolites including D-2-HG are analyzed by Agilent 7890A-5750 GC/MS system. […] of the derived metabolite is injected into Agilent 7890A-5750 for D-2-HG concentration analysis. GC oven temperature is programmed from 140° C. to 260° C. at 10° C./min, from 260° C. to 310° C. at 8° C./min and hold at 310° C. for 5 min. The flow rate of carrier gas is 1 ml/min. The mass spectrometer is operated in the electron impact (EI) mode at 70 eV D-2-HG is normalized to endogenous glutamate.
# The activity of IDHs in the presence of each compounds at different concentrations can be represented by relative D-2-HG concentration to negative control samples, and the IC50 value, the inhibition and selectivity for each compound can be evaluated.
# The present disclosure also provides an improved cell-based assay for IDH inhibition and selectivity of the compounds, which involves stably over-expressing D-2-HG dehydrogenase in HT1080 and HCCC 9810 cells.
# According to previous report, over expression of D-2-HG dehydrogenase decreases the half-life of D-2-HG in HT1080 cells (FIGS. 2A and 2B) [“D-2-hydroxyglutarate is essential for maintaining oncogenic property of mutant IDH-containing cancer cells but dispensable for cell growth”, Ma, S., et al., Oncotarget, (2015)], making the cells more sensitive to D-2-HG synthesis blockage by mutant IDH1 inhibitors. It will greatly increase the sensitivity and accurateness of this cell based assay. In the improved cell-based assay, all other steps are performed as disclosed in Test 6.
# The D-2-HG inhibition activity of compounds was also assessed in the improved cell-based assay according to the method disclosed in Test 7 of the Biological evaluation section. HT1080 cells over-expressing D-2-HG dehydrogenase were cultured in 35 mm plate and treated with each of Compounds 1-37 at a concentration of 0.5 μM, 1 μM, 2.5 μM and 5 μM for 12 h, respectively, and the D-2-HG concentration was analysed. The inhibition ratio of D-2-HG in HT1080 cell by the exemplary Compounds 16, 21-24 and 31 at different concentrations were shown in Table 10.
# Target sequence in this assay (O75874 2-414 R132C): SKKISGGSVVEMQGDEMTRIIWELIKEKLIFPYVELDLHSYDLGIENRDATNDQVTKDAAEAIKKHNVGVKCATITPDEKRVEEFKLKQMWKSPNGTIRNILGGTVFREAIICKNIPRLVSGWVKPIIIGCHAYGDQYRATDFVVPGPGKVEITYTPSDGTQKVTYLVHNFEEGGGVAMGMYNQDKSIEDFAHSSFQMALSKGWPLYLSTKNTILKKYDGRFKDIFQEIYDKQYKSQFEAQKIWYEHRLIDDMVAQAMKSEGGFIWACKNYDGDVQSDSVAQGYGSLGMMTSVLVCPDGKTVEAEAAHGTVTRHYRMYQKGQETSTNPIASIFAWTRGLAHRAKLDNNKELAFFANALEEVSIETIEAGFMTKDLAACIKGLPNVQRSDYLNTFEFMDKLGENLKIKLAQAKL
# [2] = molecular target: T1, IDH1 R132C; test: Biochemical assay for inhibition of mutant IDH1 R132C; conditions: tested in triplet
# Description: (§1) The present disclosure provides a biochemical assay method for detecting the IDH inhibition and selectivity of the compounds by detecting IDH enzyme activity directly.
# (§2) Wild-type IDH enzyme could convert NADP^+ to NADPH when it catalyzes the α-KG producing reaction. Mutant IDH enzyme could convert NADPH to NADP^+ when it catalyzes the D-2-HG producing reaction. So the activity of wild-type and mutant IDH1/2 could be measured by monitoring NADPH level change: in the reaction catalyzed by wild-type IDH1/2, the newly generated NADPH is utilized instantly by coupled diaphorase-resazurin reaction to generate resorufin which is fluorescent (at Excitation 544 nm, Emission 590 nm) and thus NADPH is monitored indirectly; while in the reaction catalyzed by mutant IDH1/2, NADPH is directly monitored as it is fluorescent (at Excitation 340 nm, Emission 460 nm). By monitoring the change of NADPH level in the reaction, the enzyme activity could be determined rapidly and efficiently, IC50 of a compound could also be assayed.
# (§3) The test compounds were prepared into 50 mM stock solutions in DMSO and stored at −20° C. Each test compound stock was further diluted to obtain a 100× stock solution at a concentration of 200 μM, 100 μM, 50 μM, 25 μM, 12.5 jμM, 6.25 μM and 3.125 μM, respectively, for the final use on the day of test.
# (§4) Inhibition of Mutant IDHJ (R132H or R132C):
# (§5) Solution A was prepared by combining 1 M Tris-HCl pH7.5 (300 μL), 5 M NaCl (450 μL), 1 M MgCl2 (150 μL), 1 M DTT (15 μL), 20 mg/mL BSA (37.5 μL), 20 mM NADPH (20 μL), and 0.5 mM α-KG (40 μL), followed by adding deionized water to a final volume of 15 mL.
# (§6) Reaction buffer was prepared by combining 1 M Tris-HCl pH 7.5 (200 μL), 5 M NaCl (300 μL), 1 M MgCl2 (100 μL), 1 M DTT (10 μL) and 20 mg/mL BSA (25 μL), followed by adding deionized water to a final volume of 10 mL.
# (§7) Solution B was prepared by combining the reaction buffer (5 mL) and […] IDH1-R132H (5.21 μL) or 107 μM IDH1-R132C (4.67 μL).
# (§8) 148 μL Solution A was added into each sample well of a 96-well plate P1, and then 2 μL of the test compound solution at each concentration and 2 μL of DMSO (negative control/blank) were added into individual sample well respectively. 50 μL of Solution B was added into each of the sample wells having test compounds and one sample well having DMSO only, and 50 μL of reaction buffer was added into another sample well having DMSO only, respectively. P1 was put into BioTek Synergy H4 Microplate reader (BioTek Instruments Inc., Winooski, U.S.), and the program was set as follows: 37° C., shake plate 5 seconds, run kinetic mode, total detection time 20 min, detection intervals 40 seconds, detection mode fluorescence (at Excitation 340 nm, Emission 460 nm). The data were exported, the relative enzyme activity and the half-maximal inhibitory concentration (IC50) for the test compound were calculated. Relative enzyme activity was calculated as the absolute value of the slope of the Emission 460 reads of each well plotted against time (which represents the conversion rate of ca-KG to 2-HG through IDH1 modulated utilization of NADPH). The Dose-response curve was drawn and the IC50 was calculated via fitting. The IDH inhibition and selectivity of each test compound can be evaluated according to the effect of the compounds on the IDH enzyme activity.
# (§9) The IDH inhibition activity of the compounds were assessed according to Test 5 of the Biological evaluation section. The test for mutant IDH1 R132H/R132C inhibition of each compound was carried out in triplet. For IDH1 R132H, the enzyme activity of exemplary Compounds 16, 21, 22, 23, 24 and 31 is plotted as a function of logarithm of the concentration of the compound in FIGS. 8A-8C, 9A-9C, 10A-10C, 11A-11C, 12A-12C and 13A-13C, respectively. […]
# Target sequence in this assay (O75874 whole entry R132C): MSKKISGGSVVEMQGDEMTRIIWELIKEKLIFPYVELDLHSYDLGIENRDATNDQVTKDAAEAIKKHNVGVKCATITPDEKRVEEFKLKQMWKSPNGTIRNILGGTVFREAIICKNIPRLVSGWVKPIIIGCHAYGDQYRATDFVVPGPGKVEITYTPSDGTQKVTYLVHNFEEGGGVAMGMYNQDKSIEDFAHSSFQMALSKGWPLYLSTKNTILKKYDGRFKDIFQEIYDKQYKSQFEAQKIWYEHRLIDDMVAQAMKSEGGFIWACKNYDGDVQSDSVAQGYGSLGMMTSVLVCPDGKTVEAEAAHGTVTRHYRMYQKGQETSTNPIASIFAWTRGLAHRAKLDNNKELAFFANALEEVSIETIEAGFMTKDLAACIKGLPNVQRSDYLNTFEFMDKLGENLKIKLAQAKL
# [3] = molecular target: IDH1 R132H (Homo sapiens (Human), UniProt O75874, R132H); test: Biochemical assay for inhibition of mutant IDH1 R132H; conditions: tested in triplet
# Chain of IDH1 R132H (O75874 whole entry R132H): as the sequence (O75874 whole entry R132C) above, with C132H counted along it
# Description: as §1, §2, §3, §4, §5, §6, §7, §8, §9
SMILES,Inhibition ratio of D-2-HG in HT1080 cell ([1]; 0.5 μM),Inhibition ratio of D-2-HG in HT1080 cell ([1]; 1 μM),Inhibition ratio of D-2-HG in HT1080 cell ([1]; 2.5 μM),Inhibition ratio of D-2-HG in HT1080 cell ([1]; 5 μM),IC50 [2],IC50 [3]
"CCN1Cc2c(ccnc2N[C@@H](C)c2ccc(Oc3cccc(F)c3)cc2)C1=O [Compound 21, (S)-2-ethyl-4-((1-(4-(3-fluorophenoxy)phenyl)ethyl)amino)-2,3-dihydro-1H-pyrrolo[3,4-c]pyridin-1-one]",20.2%,18.7%,43.1%,76.1%,< 1500 nM,< 1000 nM
"CCN1Cc2c(ccnc2N[C@@H](C)c2ccc(Oc3ccccc3F)cc2)C1=O [Compound 22, (S)-2-ethyl-4-((1-(4-(2-fluorophenoxy)phenyl)ethyl)amino)-2,3-dihydro-1H-pyrrolo[3,4-c]pyridin-1-one]",36.3%,53.3%,72.3%,87.8%,< 1500 nM,< 1000 nM
"CCN1Cc2c(ccnc2N[C@@H](C)c2ccc(Oc3ccc(C)cc3)c(F)c2)C1=O [Compound 24, (S)-2-ethyl-4-((1-(3-fluoro-4-(p-tolyloxy)phenyl)ethyl)amino)-2,3-dihydro-1H-pyrrolo[3,4-c]pyridin-1-one]",45.5%,54.6%,72.1%,92.1%,< 1500 nM,< 1000 nM
"Cc1ccc(Oc2ccc([C@H](C)Nc3nccc4c3CN(C(C)C)C4=O)cc2)cc1 [Compound 31, (S)-2-isopropyl-4-((1-(4-(p-tolyloxy)phenyl)ethyl)amino)-2,3-dihydro-1H-pyrrolo[3,4-c]pyridin-1-one]",36.9%,57.8%,68.7%,89.1%,< 1500 nM,< 1000 nM
